What follows are molecules tested against T1, Recombinant human JARID1B/KDM5B (Homo sapiens, UniProt Q9UGL1) (assay: LANCE Ultra TR-FRET demethylase assay with FLAG-tagged JARID1B). Conditions: 100 nM compound; 500 nM biotinylated H3K4me3 peptide substrate.
T1 construct: purchased Active Motif 31432; host or cells: Sf9 insect cells
Format: biochemical
Description: FLAG-tagged JARID1B (also known as KDM5B) protein was screened against more than 170 compounds. For this compound screening, LANCE Ultra time-resolved fluorescence resonance energy transfer (TR-FRET) assay was employed using an europoium (Eu)-labeled antibody that can specifically recognize mono- or dimethylated peptides (H3K4me2/1) and ULight-streptavidin (ULight-SA), a small molecule fluorescent dye. When irradiated at 340 nm, the energy from the Eu donor is transferred to the ULight acceptor dye which, in turn, emits light primarily at 665 nm. The ratio between the intensity of primary emission at 665 nm and that of secondary emission at 590 nm was used to quantify the level of lysine methylation. As JARID1B removes more methyl moieties from tri-methylated substrate peptides (H3K4me3), the ratio increases until the enzyme reaction is terminated. In case, therefore, the compounds disrupt the enzymatic activity completely, the ratio becomes equal to a background value.
Recombinant human JARID1B/KDM5B (accession number NP_006609) of molecular weight 179.9 KDa was expressed in Sf9 insect cells and contains an N-terminal FLAG tag. The enzyme was obtained from Active Motif (Catalog No. 31432). The tri-methylated histone substrate peptide of purity greater than 95% was a synthetic peptide in which the first 21 amino acids correspond to the human histone H3 sequence with three extra amino acids and a biotin motif (GGK-biotin) linked to the C-terminus [sequence: ART-K (Me3)-QTARKSTGGKAPRKQLA-GGK-biotin-OH], (AnaSpec, Fremont, Calif. Catalog. No. ANA-1413). The reference inhibitory compound tranylcypromine (or trans-2-phenylcyclopropylamine hydrochloride, also known as, 2-PCPA) was purchased from Sigma (St. Louis, Mo. Cat. no. P8511). ULight-labeled streptavidin (ULight-SA, Catalog no. TRF0102), Eu-W1024-labeled anti-methyl-Histone H3 Lysine 4 (H3K4me1-2) Antibody (Catalog no. TRF0402), and LANCE detection buffer 10× (Catalog no. CR97-100) were obtained from PerkinElmer (Montreal, Quebec, Canada). The TR-FRET experiments were carried out in white, low-volume 384-wellplates purchased from PerkinElmer (ProxiPlate-384 Plus, Catalog no. 6008280).
The TR-FRET signal was measured in the presence both of the bio-H3K4me3 peptide and FLAG-JARID1B by detecting any H3K4me2/1 peptide produced in the assay system. Assays using only the bio-H3K4me2 peptide were served as a positive control. Robust enzymatic progressions were observed by using JARID1B at concentrations ranging from 10 to 30 nM. In a typical TR-FRET experiment, JARID1B was pre-incubated with or without 20 uM, 1 uM, or 0.1 uM of test-compounds (containing 1% DMSO final) for […]. The enzymatic reactions were initiated by the addition of 500 nM biotinylated H3K4me3 peptide substrate plus 500 uM of 2-OG, 25 uM Fe(II) and 2 mM ascorbate. The reaction buffer also contained 50 mM Hepes (pH7.5), 0.01% (v/v) Tween 20, and 50 mM NaCl. The reaction mixture was incubated for […] at room temperature before reading on an EnVision plate reader (PerkinElmer, Waltham, Mass.).

T1 sequence (Q9UGL1 whole entry): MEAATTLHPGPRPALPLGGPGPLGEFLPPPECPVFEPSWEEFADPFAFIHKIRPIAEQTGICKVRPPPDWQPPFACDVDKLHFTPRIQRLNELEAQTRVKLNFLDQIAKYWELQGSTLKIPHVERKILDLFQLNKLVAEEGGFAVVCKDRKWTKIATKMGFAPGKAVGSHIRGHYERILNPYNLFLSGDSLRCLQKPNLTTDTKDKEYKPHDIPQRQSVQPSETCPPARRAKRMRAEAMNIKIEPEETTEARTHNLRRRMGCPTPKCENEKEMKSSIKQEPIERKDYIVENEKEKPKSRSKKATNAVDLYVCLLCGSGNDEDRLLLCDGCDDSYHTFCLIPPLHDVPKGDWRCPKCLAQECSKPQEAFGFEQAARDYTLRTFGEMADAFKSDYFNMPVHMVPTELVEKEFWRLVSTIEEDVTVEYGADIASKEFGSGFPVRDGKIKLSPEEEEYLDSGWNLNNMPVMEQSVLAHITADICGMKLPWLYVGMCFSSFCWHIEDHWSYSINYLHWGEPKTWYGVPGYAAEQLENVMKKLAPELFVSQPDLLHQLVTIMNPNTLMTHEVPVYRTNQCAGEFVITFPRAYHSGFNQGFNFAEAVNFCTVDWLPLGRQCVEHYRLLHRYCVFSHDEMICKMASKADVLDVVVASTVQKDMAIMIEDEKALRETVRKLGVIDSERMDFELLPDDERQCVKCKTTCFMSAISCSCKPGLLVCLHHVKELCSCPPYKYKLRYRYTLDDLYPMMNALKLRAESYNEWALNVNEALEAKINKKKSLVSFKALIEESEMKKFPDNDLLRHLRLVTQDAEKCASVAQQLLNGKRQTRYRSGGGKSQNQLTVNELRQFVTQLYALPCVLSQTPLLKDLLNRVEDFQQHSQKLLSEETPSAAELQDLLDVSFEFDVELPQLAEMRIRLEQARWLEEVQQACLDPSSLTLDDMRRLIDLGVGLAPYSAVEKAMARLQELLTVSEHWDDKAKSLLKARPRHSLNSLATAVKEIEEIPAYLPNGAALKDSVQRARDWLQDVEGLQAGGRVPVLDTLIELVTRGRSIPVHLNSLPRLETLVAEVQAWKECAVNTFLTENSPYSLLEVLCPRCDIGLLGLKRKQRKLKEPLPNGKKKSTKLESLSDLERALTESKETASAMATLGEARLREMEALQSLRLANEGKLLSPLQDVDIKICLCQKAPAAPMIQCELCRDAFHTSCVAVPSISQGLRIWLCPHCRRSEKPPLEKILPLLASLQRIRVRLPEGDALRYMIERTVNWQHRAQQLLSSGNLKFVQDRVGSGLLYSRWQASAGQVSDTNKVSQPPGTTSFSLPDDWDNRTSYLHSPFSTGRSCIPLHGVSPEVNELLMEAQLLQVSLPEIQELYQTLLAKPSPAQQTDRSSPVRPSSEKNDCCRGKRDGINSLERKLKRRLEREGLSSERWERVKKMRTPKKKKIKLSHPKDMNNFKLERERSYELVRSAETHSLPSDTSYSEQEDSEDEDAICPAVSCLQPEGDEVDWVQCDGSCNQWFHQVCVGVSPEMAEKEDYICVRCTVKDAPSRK

`CC(c1ccccc1)c1ccc(OCc2nc3c(CNCC4CCNCC4)nccc3c(=O)[nH]2)cc1` (stereo not shown) [Example 141, 2-((4-(1-phenylethyl)phenoxy)methyl)-8-(((piperidin-4-ylmethyl)amino)methyl)pyrido[3,4-d]pyrimidin-4(3H)-one] and `Cc1ccc(OCc2nc3c(CNCC4CCNCC4)nccc3c(=O)[nH]2)cc1` [Example 120, 8-(((piperidin-4-ylmethyl)amino)methyl)-2-((p-tolyloxy)methyl)pyrido[3,4-d]pyrimidin-4(3H)-one] fall in the same range of inhibition at 0.1 µM: 20 to 50% for the first, 20 to 50% for the second.

First: CN1CCC(CNCc2nccc3c(=O)[nH]c(C4CCCC4)nc23)CC1 [Example 192, 2-cyclopentyl-8-((((1-methylpiperidin-4-yl)methyl)amino)methyl)pyrido[3,4-d]pyrimidin-4(3H)-one]
Second: O=c1[nH]c(COc2ccc(C3CCCC3)cc2)nc2c(CNCC3CCNCC3)nccc12 [Example 140, 2-((4-cyclopentylphenoxy)methyl)-8-(((piperidin-4-ylmethyl)amino)methyl)pyrido[3,4-d]pyrimidin-4(3H)-one]
The inhibition at 0.1 µM of the first is lower: under 20% for the first, 20 to 50% for the second.

`O=c1[nH]c(COc2ccccc2F)nc2c(CNCC3CCNCC3)nccc12` [Example 116, 2-((2-fluorophenoxy)methyl)-8-(((piperidin-4-ylmethyl)amino)methyl)pyrido[3,4-d]pyrimidin-4(3H)-one] and `O=c1[nH]c(COc2ccccc2Cl)nc2c(CNCC3CCNCC3)nccc12` [Example 122, 2-((2-chlorophenoxy)methyl)-8-(((piperidin-4-ylmethyl)amino)methyl)pyrido[3,4-d]pyrimidin-4(3H)-one] fall in the same range of inhibition at 0.1 µM: 20 to 50% for the first, 20 to 50% for the second.

First: O=c1[nH]c(COc2ccc(F)c(Cl)c2)nc2c(CNCC3CCCOC3)nccc12 (stereo not shown) [Example 162, 2-((3-chloro-4-fluorophenoxy)methyl)-8-((((tetrahydro-2H-pyran-3-yl)methyl)amino)methyl)pyrido[3,4-d]pyrimidin-4(3H)-one]
Second: O=C(CNCc1nccc2c(=O)[nH]c(COc3ccc(F)c(Cl)c3)nc12)N1CCOCC1 [Example 225, 2-((3-chloro-4-fluorophenoxy)methyl)-8-(((2-morpholino-2-oxoethyl)amino)methyl)pyrido[3,4-d]pyrimidin-4(3H)-one]
The inhibition at 0.1 µM of the first is lower: under 20% for the first, 20 to 50% for the second.

`C[C@H](Oc1ccc(F)c(Cl)c1)c1nc2c(CNCC3CCNCC3)nccc2c(=O)[nH]1` [Example 219, (S)-2-(1-(3-chloro-4-fluorophenoxy)ethyl)-8-(((piperidin-4-ylmethyl)amino)methyl)pyrido[3,4-d]pyrimidin-4(3H)-one] and `Cc1cc(Cl)ccc1OCc1nc2c(CNCC3CCNCC3)nccc2c(=O)[nH]1` [Example 137, 2-((4-chloro-2-methylphenoxy)methyl)-8-(((piperidin-4-ylmethyl)amino)methyl)pyrido[3,4-d]pyrimidin-4(3H)-one] fall in the same range of inhibition at 0.1 µM: 20 to 50% for the first, 20 to 50% for the second.

`O=C(CNCc1nccc2c(=O)[nH]c(COc3ccc(F)c(Cl)c3)nc12)N[C@@H]1CCNC1` [Example 239, (R)-2-(((2-((3-chloro-4-fluorophenoxy)methyl)-4-oxo-3,4-dihydropyrido[3,4-d]pyrimidin-8-yl)methyl)amino)-N-(pyrrolidin-3-yl)acetamide] and `N[C@@H]1CCN(C(=O)CNCc2nccc3c(=O)[nH]c(COc4ccc(F)c(Cl)c4)nc23)C1` [Example 228, (R)-8-(((2-(3-aminopyrrolidin-1-yl)-2-oxoethyl)amino)methyl)-2-((3-chloro-4-fluorophenoxy)methyl)pyrido[3,4-d]pyrimidin-4(3H)-one] cannot be ordered by inhibition at 0.1 µM: over 50% for the first, over 50% for the second.

`O=c1[nH]c(COc2ccc(F)c(Cl)c2)nc2c(CNCCc3ccccn3)nccc12` [Example 186, 2-((3-chloro-4-fluorophenoxy)methyl)-8-(((2-(pyridin-2-yl)ethyl)amino)methyl)pyrido[3,4-d]pyrimidin-4(3H)-one] and `O=c1[nH]c(COc2ccc(F)c(Cl)c2)nc2c(CNCc3ccccn3)nccc12` [Example 170, 2-((3-chloro-4-fluorophenoxy)methyl)-8-(((pyridin-2-ylmethyl)amino)methyl)pyrido[3,4-d]pyrimidin-4(3H)-one] fall in the same range of inhibition at 0.1 µM: 20 to 50% for the first, 20 to 50% for the second.

`O=c1[nH]c(COCc2ccccc2)nc2c(CNC[C@H]3CCNC3)nccc12` [Example 204, (S)-2-((benzyloxy)methyl)-8-(((pyrrolidin-3-ylmethyl)amino)methyl)pyrido[3,4-d]pyrimidin-4(3H)-one] and `Cc1ccccc1OCc1nc2c(CNCC3CCNCC3)nccc2c(=O)[nH]1` [Example 118, 8-(((piperidin-4-ylmethyl)amino)methyl)-2-((o-tolyloxy)methyl)pyrido[3,4-d]pyrimidin-4(3H)-one] fall in the same range of inhibition at 0.1 µM: 20 to 50% for the first, 20 to 50% for the second.

First: O=c1[nH]c(COc2ccccn2)nc2c(CNCC3CCNCC3)nccc12 [Example 133, 8-(((piperidin-4-ylmethyl)amino)methyl)-2-((pyridin-2-yloxy)methyl)pyrido[3,4-d]pyrimidin-4(3H)-one]
Second: Cc1ccc(OCc2nc3c(CNCC4CCNCC4)nccc3c(=O)[nH]2)cc1C [Example 136, 2-((3,4-dimethylphenoxy)methyl)-8-(((piperidin-4-ylmethyl)amino)methyl)pyrido[3,4-d]pyrimidin-4(3H)-one]
The inhibition at 0.1 µM of the first is lower: under 20% for the first, 20 to 50% for the second.

`O=c1[nH]cnc2c(CNC[C@H]3CCCNC3)nccc12` [Example 99, (S)-8-(((piperidin-3-ylmethyl)amino)methyl)pyrido[3,4-d]pyrimidin-4(3H)-one] and `O=c1[nH]cnc2c(CNCC3CCCN(Cc4ccccc4)C3)nccc12` (stereo not shown) [Example 101, 8-((((1-benzylpiperidin-3-yl)methyl)amino)methyl)pyrido[3,4-d]pyrimidin-4(3H)-one] fall in the same range of inhibition at 0.1 µM: 20 to 50% for the first, 20 to 50% for the second.

`O=C(CNCc1nccc2c(=O)[nH]c(COc3ccc(F)c(Cl)c3)nc12)N1CCCCC1` [Example 224, 2-((3-chloro-4-fluorophenoxy)methyl)-8-(((2-oxo-2-(piperidin-1-yl)ethyl)amino)methyl)pyrido[3,4-d]pyrimidin-4(3H)-one] and `O=c1[nH]c(COc2ccc(F)c(Cl)c2)nc2c(CNCc3ccco3)nccc12` [Example 171, 2-((3-chloro-4-fluorophenoxy)methyl)-8-(((furan-2-ylmethyl)amino)methyl)pyrido[3,4-d]pyrimidin-4(3H)-one] fall in the same range of inhibition at 0.1 µM: 20 to 50% for the first, 20 to 50% for the second.

`O=c1[nH]c(COc2ccc(Cc3ccccc3)cc2)nc2c(CNCC3CCN(Cc4ccccc4)CC3)nccc12` [Example 111, 2-((4-benzylphenoxy)methyl)-8-((((1-benzylpiperidin-4-yl)methyl)amino)methyl)pyrido[3,4-d]pyrimidin-4(3H)-one] and `O=c1[nH]c(COc2ccncc2)nc2c(CNCC3CCN(Cc4ccccc4)CC3)nccc12` [Example 110, 8-((((1-benzylpiperidin-4-yl)methyl)amino)methyl)-2-((pyridin-4-yloxy)methyl)pyrido[3,4-d]pyrimidin-4(3H)-one] cannot be ordered by inhibition at 0.1 µM: over 50% for the first, over 50% for the second.

First: CCN(CC)CCCCNCc1nccc2c(=O)[nH]cnc12 [Example 86, 8-(((4-(diethylamino)butyl)amino)methyl)pyrido[3,4-d]pyrimidin-4(3H)-one]
Second: O=c1[nH]cnc2c(CNCC3CCN(Cc4ccccc4)CC3)nccc12 [Example 96, 8-((((1-benzylpiperidin-4-yl)methyl)amino)methyl)pyrido[3,4-d]pyrimidin-4(3H)-one]
The inhibition at 0.1 µM of the first is lower: under 20% for the first, 20 to 50% for the second.

`O=c1[nH]c(COc2ccc(F)c(Cl)c2)nc2c(CNCc3ccnc(Cl)c3)nccc12` [Example 182, 2-((3-chloro-4-fluorophenoxy)methyl)-8-((((2-chloropyridin-4-yl)methyl)amino)methyl)pyrido[3,4-d]pyrimidin-4(3H)-one] and `CC(Oc1ccc(Cc2ccccc2)cc1)c1nc2c(CNCC3CCNCC3)nccc2c(=O)[nH]1` (stereo not shown) [Example 212, 2-(1-(4-benzylphenoxy)ethyl)-8-(((piperidin-4-ylmethyl)amino)methyl)pyrido[3,4-d]pyrimidin-4(3H)-one] fall in the same range of inhibition at 0.1 µM: 20 to 50% for the first, 20 to 50% for the second.

Reference: patent publication US9834550B2, “Pyridopyrimidinone compounds for modulating the catalytic activity of histone lysine demethylases (KDMs)” (Dong-A Socio Holdings Co., Ltd., priority 2014, dated 2017)
